Laboratory results: article PMC12278645, “Design, synthesis, and antitumor activity of novel thioheterocyclic nucleoside derivatives by suppressing the c-MYC pathway” (Acta Pharmaceutica Sinica. B, 2025)

Legend:
[1] = system: CT26 (mouse colon cancer); assay: CCK-8 anti-proliferation assay, CT26; type: cell-based; settings: CCK-8, 48 h, mean ± SD
Protocol: (§1) To evaluate their spectrum of anti-proliferative activity, further CCK-8 assays were carried out with the selected compounds (5a/5b, 8a/8b, 33a/33b, and 36a/36b) on MCF-7 (human breast cancer), A375 (human malignant melanoma), DU145 (human prostate cancer), and CT26 (mouse colon cancer) cell lines. The selected compounds had moderate to potent antitumor activity on the four cell lines, indicating their broad spectrum of antitumor activity (Table 5).
(§2) MCF-7, A375, and HeLa cells were cultured in DMEM, HCT116 cells were cultured in McCoy's 5A medium, and DU145 and CT26 were cultured in RPMI 1640 with 10% FBS, 1% penicillin-streptomycin solution (10,000 U/mL penicillin and 10,000 μg/mL streptomycin) at 37 °C under 5% CO2. The cells were seeded in 96-well plates (4 × 10^3 cells/well) overnight and then treated with various concentrations (1–50 μmol/L) of the compound. After 48 h, the cell viability was measured by CCK-8 assay. The absorbance of each well was measured using a microplate reader (Multiskan FC, Thermo Fisher Scientific, Massachusetts, USA) at 450 nm wavelength. Assays were performed in triplicate. Compound concentrations that inhibited cell growth by 50% (IC50) were calculated from the dose–response curves of each cell line. Data are mean ± SD values from three independent experiments.

[2] = system: DU145 (human prostate cancer); assay: CCK-8 anti-proliferation assay, DU145; type: cell-based; settings: CCK-8, 48 h, mean ± SD
Protocol: as §1, §2

[3] = system: MCF-7 (human breast cancer); assay: CCK-8 anti-proliferation assay, MCF-7; type: cell-based; settings: CCK-8, 48 h, mean ± SD
Protocol: as §1, §2

HeLa cells = assay: CCK-8 anti-proliferation assay, HeLa; type: cell-based, human
Protocol: (§3) Tumor cell anti-proliferation activities were determined by cell counting kit-8 (CCK-8) assay.
as §2

[4] = system: A375 (human malignant melanoma); assay: CCK-8 anti-proliferation assay, A375; type: cell-based; settings: CCK-8, 48 h, mean ± SD
Protocol: as §1, §2

HCT116 cells = assay: CCK-8 anti-proliferation assay, HCT116; type: cell-based, human
Protocol: as §3, §2

[5] = Homo sapiens, HeLa, 48 h, CCK-8, 48 h, mean ± SD, three independent experiments
[6] = Homo sapiens, HCT-116, 48 h, CCK-8, 48 h, mean ± SD, three independent experiments
[7] = CCK-8, 48 h, mean ± SD, three independent experiments

Structure (SMILES)	IC50 [1] [µM]	IC50 [2] [µM]	IC50 [3] [µM]	IC50 (HeLa cells; [7]) [µM]	IC50 [4] [µM]	IC50 (HCT116 cells; [7]) [µM]	further results
O=c1[nH]cc(F)c(=O)[nH]1 [5-FU, 5-fluorouracil, reference compound]	–	–	–	–	–	–	IC50 ([1]; Mus musculus, CT26): 3.12 ± 0.13 µM; IC50 ([2]; Homo sapiens, DU-145): 21.4 ± 2.17 µM; IC50 ([3]; Homo sapiens, MCF7): > 50 µM; IC50 (HeLa cells; [5]): 4.93 ± 1.02 µM; IC50 ([4]; Homo sapiens, A-375): 8.62 ± 1.21 µM; IC50 (HCT116 cells; [6]): 9.84 ± 2.32 µM
CCOC(=O)C1(n2cnc3c(N4CCCCC4)nc(F)nc32)CSCC1O (stereo not drawn) [33b]	0.79 ± 0.14	18.6 ± 2.12	7.47 ± 1.17	8.15 ± 1.08	14.67 ± 0.09	0.46 ± 0.04	–
CCCSc1ncnc2c1ncn2C1(C(=O)OCC)CSCC1O (single isomer, unassigned) [8a]	2.58 ± 0.15	29.3 ± 1.37	28.2 ± 2.16	2.77 ± 0.41	4.52 ± 1.12	3.43 ± 0.23	–
N.N.[Cl][Pt][Cl] [Cisplatin, cisplatin, reference compound]	22.5 ± 1.28	9.65 ± 0.48	6.32 ± 0.74	11.2 ± 0.81	9.42 ± 0.87	5.29 ± 0.25	–
CCOC(=O)C1(n2cnc3c(N4CCCCCC4)ncnc32)CSCC1O (single isomer, unassigned) [19a]	–	–	–	22.8 ± 1.22	–	1.19 ± 0.09	–
CCCSc1ncnc2c1ncn2C1(C(=O)OCC)CSCC1O (single isomer, unassigned) [8b]	2.37 ± 0.08	11 ± 1.04	25.4 ± 2.45	2.55 ± 0.12	2.82 ± 0.03	2.02 ± 0.07	–
CCOC(=O)[C@]1(n2cnc3c(Sc4cccc(F)c4)ncnc32)CSC[C@@H]1O (relative stereo) [28b]	–	–	–	–	–	–	IC50 (HeLa cells; [5]): 25.8 ± 1.35 µM; IC50 (HCT116 cells; [6]): 15.7 ± 2 µM
CCOC(=O)[C@]1(n2cnc3c(N4CCCCC4)nc(F)nc32)CSC[C@H]1O [33aa]	–	–	–	–	–	–	IC50 (HeLa cells; [5]): 6.17 ± 1.01 µM; IC50 (HCT116 cells; [6]): 0.58 ± 0.17 µM
CCCSc1nc(F)nc2c1ncn2C1(C(=O)OCC)CSCC1O (stereo not drawn) [36a]	0.94 ± 0.11	9.48 ± 1.11	11.3 ± 1.27	9.68 ± 1.12	4.27 ± 1.02	0.72 ± 0.12	–
C#CCSc1ncnc2c1ncn2[C@@]1(C(=O)OCC)CSC[C@H]1O (relative stereo) [24a]	–	–	–	–	–	–	IC50 (HeLa cells; [5]): 15.9 ± 2.12 µM; IC50 (HCT116 cells; [6]): 1.81 ± 0.12 µM
CCOC(=O)C1(n2cnc3c(N4CCOCC4)ncnc32)CSCC1O (single isomer, unassigned) [9b]	–	–	–	10.2 ± 1.05	–	17.1 ± 1.12	–
CCOC(=O)C1(n2cnc3c(N4CCC(F)CC4)ncnc32)CSCC1O (single isomer, unassigned) [12b]	–	–	–	40.9 ± 3.08	–	3.92 ± 0.87	–
CCOC(=O)C1(n2cnc3c(N4CCC(Cc5ccccc5F)CC4)ncnc32)CSCC1O (single isomer, unassigned) [17b]	–	–	–	17 ± 1.12	–	4.49 ± 1.13	–
CCOC(=O)C1(n2cnc3c(N4CCCCC4)ncnc32)CSCC1O (single isomer, unassigned) [5a]	2.33 ± 0.14	42.8 ± 2.12	11.2 ± 1.04	2.65 ± 0.52	11.8 ± 1.12	1.84 ± 0.14	–
CCOC(=O)C1(n2cnc3c(N4CCCCC4)ncnc32)CSCC1O (single isomer, unassigned) [5b]	2.42 ± 0.11	42.5 ± 2.11	35.2 ± 2.14	4.61 ± 0.87	7.52 ± 1.03	1.77 ± 0.12	–
CCOC(=O)C1(n2cnc3c(Cl)nc(F)nc32)CSCC1O (single isomer, unassigned) [39a]	–	–	–	–	–	–	IC50 (HeLa cells; Table S3, CCK-8, mean ± SD): 11.2 ± 1.32 µM; IC50 (HCT116 cells; Table S3, CCK-8, mean ± SD): 3.42 ± 0.42 µM
CCOC(=O)C1(n2cnc3c(N4CCSCC4)ncnc32)CSCC1O (single isomer, unassigned) [10a]	–	–	–	45.8 ± 2.12	–	18.8 ± 1.04	–
CCOC(=O)C1(n2cnc3c(N4CCCC4)ncnc32)CSCC1O (single isomer, unassigned) [20a]	–	–	–	11.4 ± 1.42	–	39.1 ± 1.35	–
CCOC(=O)C1(n2cnc3c(Cl)nc(Cl)nc32)CSCC1O (single isomer, unassigned) [40b]	–	–	–	–	–	–	IC50 (HeLa cells; Table S3, CCK-8, mean ± SD): 4.45 ± 1.07 µM; IC50 (HCT116 cells; Table S3, CCK-8, mean ± SD): 2.13 ± 0.46 µM
CCOC(=O)[C@]1(n2cnc3c(SCc4ccccc4)ncnc32)CSC[C@H]1O (relative stereo) [27a]	–	–	–	–	–	–	IC50 (HeLa cells; [5]): 22.3 ± 2.09 µM; IC50 (HCT116 cells; [6]): 14.4 ± 1.64 µM
CCOC(=O)C1(n2cnc3c(N(C)C)ncnc32)CSCC1O (single isomer, unassigned) [4a]	–	–	–	9.81 ± 1.12	–	17.4 ± 1.01	–
CCOC(=O)C1(n2cnc3c(Cl)nc(F)nc32)CSCC1O (single isomer, unassigned) [39b]	–	–	–	–	–	–	IC50 (HeLa cells; Table S3, CCK-8, mean ± SD): 9.33 ± 1.17 µM; IC50 (HCT116 cells; Table S3, CCK-8, mean ± SD): 2.01 ± 0.24 µM
CCOC(=O)C1(n2cnc3c(N4CCC(Cl)CC4)ncnc32)CSCC1O (single isomer, unassigned) [14a]	–	–	–	12.1 ± 1.32	–	15 ± 2.16	–
